Values joined by “and” are separate entries in the source; they are usually repeats but may differ in a detail not shown here. Equal values may be shown once. Read-outs that look alike come from different tables or passages of the source.
Assays:
[1] = biological target: benzodiazepine receptor of rat brains; assay: Radioligand receptor binding assay ([3H]-flumazenil competitive binding); conditions: for Ki: [3H]-flumazenil competitive binding; for Specific binding of [3H]flumazenil: mean ± SEM, n=3; for IC50: reduction of specific binding of [3H]-flumazenil by 50 %, triplicates, 30 °C, 35 min
Experimental: All of the binding assays were performed in triplicates in a total volume of 500 µL at 30 °C for 35 min (Ahmadi et al., 2013[1]).
(§1) Kd and Bmax in radioligand binding assay were calculated by non-linear regression analysis of the saturation and competitive curve data (Program Prism, Graph Pad, San Diego, CA). The IC50s of the novel compounds in binding studies were determined using […]. […] In PTZ and MES tests, the data were presented as a mean with 95% confidence intervals. In the rest of the pharmacological evaluations, one-way ANOVA with Tukey's HSD post-hoc test was used. All the data were presented as mean ± SEM and P<0.05 was considered statistically significant.

male NMRI albino mice [2] = assay: Maximal electroshock (MES) test; assay type: in vivo
Experimental: (§2) To assess the anticonvulsant activity of the novel compound 6a, we used PTZ-induced convulsion and MES tests (Guerrini et al., 2008[10]; Lankau et al., 2007[13]). In both models, the ability of the novel compound to protect mice against induced seizures was evaluated. Animals were closely observed for 30 minutes after injection of the lethal dose of PTZ (100 mg/kg) and the number of dead mice after convulsion was reported. In the MES test, each subject was observed closely and the incidence of hind limb tonic extension (HLTE) in the subjects after application of MES (60 Hz, 37.2 mA, and 0.25 s) was reported.
as §1

male NMRI albino mice [3] = assay: Elevated plus-maze test; assay type: in vivo; conditions: for % duration in close arms / % duration in open arms: raw data of single animals
Experimental: The elevated plus-maze device was made up of Plexiglas, and it contained two open arms (30×5×0.5 cm) and two closed arms (30×5×35 cm) with an open roof. They were arranged so that the open arms were opposite to […]. The entire maze was elevated at a height of 1 meter. The mice were individually placed in the central square of the maze (5×5 cm) where all four arms were connected together after 30 minutes of intraperitoneal (i.p) administration of the test compounds. The time spent in the open and closed arms was recorded.

male NMRI albino mice [4] = assay: PTZ-induced lethal convulsion test; assay type: in vivo
Experimental: as §2, §1

male NMRI albino mice [5] = conditions: for latency of entrance to the dark compartment: testing day, raw data of single animals
Experimental: For the mice to get adapted to the lab environment, we transferred them to the lab 60 minutes before the tests started. Mice were randomly selected for all the experimental groups and each subject was tested only once for the pharmacological evaluations.
Distilled water was used as a solvent (vehicle) of PTZ and pentobarbital. Both, PTZ and pentobarbital were injected i.p. 5 ml/kg.
The passive avoidance cage (Malek Teb Co., Tehran) consists of two different compartments separated by a guillotine door. One of the compartments was black and dark while the other one was white and lighted. For the training trial, each mouse was placed in the white and light compartment and facing away from the guillotine door for 30 seconds. Next, the guillotine door was opened and the mouse was able to freely enter the black and dark compartment. When the mouse entered the black and dark compartment with four paws, it received an electric unpleasant stimulus (0.5 mA, 2 seconds) through the grid floor. On the testing day (after 24 hours), we placed the mouse in the lighted compartment and there was no electrical stimulus. We reported the latency to enter the black and dark compartment while the guillotine door was open.

male NMRI albino mice [6] = assay: Pentobarbital-induced sleep test; assay type: in vivo; conditions: for Sleeping time: pentobarbital 40 mg/kg i.p., raw data of single animals
From the text: The duration of the loss of the righting reflex was considered as the sleeping time. […] For prevention of hypothermia during the experiment, animals were placed on an electric blanket (Khoramjouy et al., 2021[11]).

[7] = doses of 5 and 10 mg/kg, over 10 minutes

Compound: Cc1ccnc(NC(=O)c2nnc(-c3ccc(Cl)cc3Oc3ccccc3)o2)c1 [6d, 5-(4-chloro-2-phenoxyphenyl)-N-(4-methylpyridin-2-yl)-1,3,4-oxadiazole-2-carboxamide]
- Ki [1]: 0.88 nM
- Specific binding of [3H]flumazenil ([1]; log[L] -7.0): 0.3000±0.0059 cpm
- Specific binding of [3H]flumazenil ([1]; log[L] -8.0): 0.3100±0.0102 cpm
- Specific binding of [3H]flumazenil ([1]; log[L] -8.5): 0.3767±0.0090 cpm
- Specific binding of [3H]flumazenil ([1]; log[L] -9.0): 0.4467±0.0207 cpm
- Specific binding of [3H]flumazenil ([1]; log[L] -9.5): 0.5367±0.0122 cpm
- Specific binding of [3H]flumazenil ([1]; log[L] -10.0): 0.5700±0.0156 cpm
- Specific binding of [3H]flumazenil ([1]; log[L] -11.0): 0.5733±0.0207 cpm
- IC50 [1]: 1.44 ± 0.09 nM
- melting point: 188.2 to 189.1 °C

Compound: O=C(NC1CCCCC1)c1nnc(-c2ccc(Cl)cc2Oc2ccccc2)o1 [6f, 5-(4-chloro-2-phenoxyphenyl)-N-cyclohexyl-1,3,4-oxadiazole-2-carboxamide]
- Ki [1]: 1.53 nM
- Specific binding of [3H]flumazenil ([1]; log[L] -7.0): 0.2133±0.0272 cpm
- Specific binding of [3H]flumazenil ([1]; log[L] -8.0): 0.3533±0.0189 cpm
- Specific binding of [3H]flumazenil ([1]; log[L] -8.5): 0.4000±0.0118 cpm
- Specific binding of [3H]flumazenil ([1]; log[L] -9.0): 0.4533±0.0148 cpm
- Specific binding of [3H]flumazenil ([1]; log[L] -9.5): 0.5500±0.0156 cpm
- Specific binding of [3H]flumazenil ([1]; log[L] -10.0): 0.6133±0.0296 cpm
- Specific binding of [3H]flumazenil ([1]; log[L] -11.0): 0.5933±0.0207 cpm
- IC50 [1]: 2.51 ± 0.13 nM
- melting point: 132 to 133 °C

Compound: O=C(Nc1ccccn1)c1nnc(-c2ccc(Cl)cc2Oc2ccccc2)o1 [6b, 5-(4-chloro-2-phenoxyphenyl)-N-(pyridin-2-yl)-1,3,4-oxadiazole-2-carboxamide]
- Ki [1]: 2.35 nM
- Specific binding of [3H]flumazenil ([1]; log[L] -7.0): 0.2333±0.0148 cpm
- Specific binding of [3H]flumazenil ([1]; log[L] -8.0): 0.3733±0.0223 cpm
- Specific binding of [3H]flumazenil ([1]; log[L] -8.5): 0.4267±0.0090 cpm
- Specific binding of [3H]flumazenil ([1]; log[L] -9.0): 0.5233±0.0180 cpm
- Specific binding of [3H]flumazenil ([1]; log[L] -9.5): 0.5467±0.0068 cpm
- Specific binding of [3H]flumazenil ([1]; log[L] -10.0): 0.5900±0.0118 cpm
- Specific binding of [3H]flumazenil ([1]; log[L] -11.0): 0.6433±0.0122 cpm
- IC50 [1]: 3.84 ± 0.1 nM
- melting point: 198 to 200 °C

Compound: O=C(NN1CCOCC1)c1nnc(-c2ccc(Cl)cc2Oc2ccccc2)o1 [6e, 5-(4-chloro-2-phenoxyphenyl)-N-morpholino-1,3,4-oxadiazole-2-carboxamide]
- Ki [1]: 0.95 nM
- Specific binding of [3H]flumazenil ([1]; log[L] -7.0): 0.2900±0.0059 cpm
- Specific binding of [3H]flumazenil ([1]; log[L] -8.0): 0.3067±0.0090 cpm
- Specific binding of [3H]flumazenil ([1]; log[L] -8.5): 0.3600±0.0060 cpm
- Specific binding of [3H]flumazenil ([1]; log[L] -9.0): 0.5867±0.0090 cpm
- Specific binding of [3H]flumazenil ([1]; log[L] -9.5): 0.6033±0.0189 cpm
- Specific binding of [3H]flumazenil ([1]; log[L] -10.0): 0.6667±0.0148 cpm
- Specific binding of [3H]flumazenil ([1]; log[L] -11.0): 0.6967±0.0148 cpm
- IC50 [1]: 1.55 ± 0.1 nM
- melting point: 159 to 161 °C

Compound: O=C(Nc1ccccc1)c1nnc(-c2ccc(Cl)cc2Oc2ccccc2)o1 [6a, 5-(4-chloro-2-phenoxyphenyl)-N-phenyl-1,3,4-oxadiazole-2-carboxamide]
- anticonvulsant activity in presence of flumazenil (male NMRI albino mice [2]; MES test, flumazenil 10 mg/kg): can antagonize the anticonvulsant activity
- ED50 (male NMRI albino mice [2]; Mus musculus, ip, i.p. 30 min before MES (60 Hz, 37.2 mA, 0.25 s), HLTE, mean with 95% confidence intervals): 27.8 mg/kg
- Ki [1]: 0.44 nM
- Specific binding of [3H]flumazenil ([1]; log[L] -7.0): 0.3167±0.0378 cpm
- Specific binding of [3H]flumazenil ([1]; log[L] -8.0): 0.4000±0.0412 cpm
- Specific binding of [3H]flumazenil ([1]; log[L] -8.5): 0.4200±0.0102 cpm
- Specific binding of [3H]flumazenil ([1]; log[L] -9.0): 0.4667±0.0090 cpm
- Specific binding of [3H]flumazenil ([1]; log[L] -9.5): 0.5100±0.0156 cpm
- Specific binding of [3H]flumazenil ([1]; log[L] -10.0): 0.5800±0.0156 cpm
- Specific binding of [3H]flumazenil ([1]; log[L] -11.0): 0.6267±0.0034 cpm
- IC50 [1]: 0.73 ± 0.17 nM
- % duration in close arms (male NMRI albino mice [3]; 1.25 mg/kg i.p.): 65.00% (2×) and 67.00% and 56.00% and 60.00% and 53.00% and 64.00% and 59.00%
- % duration in open arms (male NMRI albino mice [3]; 1.25 mg/kg i.p.): 35.00% (2×) and 33.00% and 44.00% and 40.00% and 47.00% and 36.21% and 41.00%
- % duration in close arms (male NMRI albino mice [3]; 5 mg/kg i.p.): 48.50% (2×) and 44.54% and 44.40% and 43.48% and 38.16% and 47.65% and 51.65%
- % duration in open arms (male NMRI albino mice [3]; 5 mg/kg i.p.): 51.49% (2×) and 55.45% and 55.59% and 56.51% and 61.83% and 52.34% and 48.34%
- % duration in close arms (male NMRI albino mice [3]; 10 mg/kg i.p.): 42.44% and 46.28% and 47.65% and 43.17% and 37.57% and 45.37% and 41.04% and 26.78%
- % duration in open arms (male NMRI albino mice [3]; 10 mg/kg i.p.): 57.55% and 53.71% and 52.34% and 56.82% and 62.42% and 54.62% and 58.96% and 73.22%
- effect on close arm time (CAT) (male NMRI albino mice [3]; [7]): decrease the close arm time
- effect on open arm time (OAT) (male NMRI albino mice [3]; [7]): increase the open arm time
- ED50 (male NMRI albino mice [4]; Mus musculus, i.p. 30 min before PTZ 100 mg/kg, mean with 95% confidence intervals): 72 mg/kg
- anticonvulsant activity in presence of flumazenil (male NMRI albino mice [4]; PTZ test, flumazenil 10 mg/kg): can antagonize the anticonvulsant activity
- latency of entrance to the dark compartment (male NMRI albino mice [5]; 1.25 mg/kg i.p.): 320 second and 380 second and 393 second and 467 second and 480 second (2×) and 420 second (2×)
- latency of entrance to the dark compartment (male NMRI albino mice [5]; 5 mg/kg i.p.): 480 second (2×) and 440 second and 344 second and 343 second and 380 second and 407 second and 251 second
- latency of entrance to the dark compartment (male NMRI albino mice [5]; 10 mg/kg i.p.): 320 s and 460 s and 407 s and 230 s and 400 s and 420 s and 480 s and 326 s
- effect on latency to enter the dark compartment (male NMRI albino mice [5]; doses of 1.25, 2.5, 5, and 10 mg/kg): did not show any significant effect
- Sleeping time (male NMRI albino mice [6]; 1.25 mg/kg i.p.): 26 min and 38 min and 39 min and 46 min and 28 min and 20 min and 24 min and 32 min
- Sleeping time (male NMRI albino mice [6]; 5 mg/kg i.p.): 48 minute and 44 minute and 50 minute (2×) and 43 minute and 57 minute and 40 minute and 56 minute
- Sleeping time (male NMRI albino mice [6]; 10 mg/kg + Flumazenil (10 mg/kg)): 43 minute (2×) and 34 minute (2×) and 27 minute (2×) and 32 minute and 29 minute
- Sleeping time (male NMRI albino mice [6]; 10 mg/kg i.p.): 53 minute and 64 minute and 47 minute (2×) and 43 minute and 40 minute and 55 minute and 49 minute
- effect on sleeping time (male NMRI albino mice [6]; dose of 10 and 5 mg/kg, P<0.001): increased the sleeping time
- hypnotic effect in presence of flumazenil (male NMRI albino mice [6]; with flumazenil 10 mg/kg, P<0.001): prevented by flumazenil

Compound: Cc1cccc(NC(=O)c2nnc(-c3ccc(Cl)cc3Oc3ccccc3)o2)n1 [6c, 5-(4-chloro-2-phenoxyphenyl)-N-(6-methylpyridin-2-yl)-1,3,4-oxadiazole-2-carboxamide]
- Ki [1]: 0.76 nM
- Specific binding of [3H]flumazenil ([1]; log[L] -7.0): 0.3000±0.0059 cpm
- Specific binding of [3H]flumazenil ([1]; log[L] -8.0): 0.3100±0.0102 cpm
- Specific binding of [3H]flumazenil ([1]; log[L] -8.5): 0.3767±0.0090 cpm
- Specific binding of [3H]flumazenil ([1]; log[L] -9.0): 0.4467±0.0207 cpm
- Specific binding of [3H]flumazenil ([1]; log[L] -9.5): 0.5367±0.0122 cpm
- Specific binding of [3H]flumazenil ([1]; log[L] -10.0): 0.5700±0.0156 cpm
- Specific binding of [3H]flumazenil ([1]; log[L] -11.0): 0.5733±0.0207 cpm
- IC50 [1]: 1.25 ± 0.09 nM
- melting point: 183.2 to 184.3 °C

Reference: publication PMC10043390, “Novel 2-substituted-5-(4-chloro-2-phenoxy)phenyl-1,3,4-oxadiazole derivatives, ligands of GABAA/benzodiazepine receptor complex: Design, synthesis, radioligand binding assay, and pharmacological evaluation” (EXCLI Journal, 2023)
